Measurements published in ChEMBL document CHEMBL3352746, “Synthesis and anticancer activity of quinopimaric and maleopimaric acids’ derivatives” (Bioorg Med Chem, 2014).

How the values were obtained:
P388 = assay: Antitumor activity against mouse P388 cells implanted in mouse assessed as increase in life span at 20 mg/kg, ip dosed daily for 5 days administered 24 hrs after tumor implantation; type: functional; conditions: route intraperitoneal
Mus musculus [1] = assay: Toxicity in mouse P388 cells implanted mouse assessed as mean ascites volume at 20 mg/kg, ip dosed daily for 5 days administered 24 hrs after tumor implantation; type: organism-based; design: dose 20 mg/kg, route intraperitoneal; conditions: in vivo
Mus musculus [2] = assay: Toxicity in mouse P388 cells implanted mouse assessed as mean ascites volume at 10 mg/kg, ip dosed daily for 5 days administered 24 hrs after tumor implantation; type: organism-based; design: dose 10 mg/kg, route intraperitoneal; conditions: in vivo
Mus musculus [3] = assay: Toxicity in mouse P388 cells implanted mouse assessed as mean spleen weight at 60 mg/kg, ip dosed daily for 5 days administered 24 hrs after tumor implantation; type: organism-based; design: dose 60 mg/kg, route intraperitoneal; conditions: in vivo
Mus musculus [4] = assay: Toxicity in mouse Ehrlich carcinoma cells implanted mouse assessed as mean spleen weight at 50 mg/kg, ip dosed daily for 5 days administered 48 hrs after tumor implantation; type: organism-based; design: dose 50 mg/kg, route intraperitoneal; conditions: in vivo
Mus musculus [5] = assay: Toxicity in mouse P388 cells implanted mouse assessed as mouse mortality at 20 mg/kg, ip dosed daily for 5 days administered 24 hrs after tumor implantation; type: organism-based; design: dose 20 mg/kg, route intraperitoneal; conditions: in vivo
[6] = Antitumor activity against mouse CA-755 cells implanted in mouse assessed as tumor growth inhibition at 40 mg/kg, ip dosed daily for 5 days measured 1 day after treatment termination; type: functional; conditions: CA-755, ip, route intraperitoneal, read-out: TGI
[7] = tested on: Lewis lung carcinoma cell line; assay: Antitumor activity against mouse LLC cells implanted in mouse assessed as tumor growth inhibition at 40 mg/kg, ip dosed daily for 5 days measured 1 day after treatment termination; type: functional; conditions: route intraperitoneal, read-out: TGI
[8] = Antitumor activity against mouse AKATOL cells implanted in mouse assessed as tumor growth inhibition at 40 mg/kg, ip dosed daily for 5 days measured 8 to 9 days after treatment termination; type: functional; conditions: route intraperitoneal, read-out: TGI
[9] = Antitumor activity against mouse CA-755 cells implanted in mouse assessed as tumor growth inhibition at 40 mg/kg, ip dosed daily for 5 days measured 16 days after treatment termination; type: functional; conditions: CA-755, ip, route intraperitoneal, read-out: TGI
[10] = Antitumor activity against mouse CA-755 cells implanted in mouse assessed as increase in life span at 40 mg/kg, ip dosed daily for 5 days; type: functional; conditions: CA-755, ip, 120 h, route intraperitoneal
[11] = tested on: Lewis lung carcinoma cell line; assay: Antitumor activity against mouse LLC cells implanted in mouse assessed as increase in life span at 40 mg/kg, ip dosed daily for 5 days; type: functional; conditions: 120 h, route intraperitoneal
[12] = Antitumor activity against mouse AKATOL cells implanted in mouse assessed as tumor growth inhibition at 40 mg/kg, ip dosed daily for 5 days measured 19 days after treatment termination; type: functional; conditions: route intraperitoneal, read-out: TGI
[13] = tested on: Lewis lung carcinoma cell line; assay: Antitumor activity against mouse LLC cells implanted in mouse assessed as tumor growth inhibition at 40 mg/kg, ip dosed daily for 5 days measured 19 days after treatment termination; type: functional; conditions: route intraperitoneal, read-out: TGI
Mus musculus [14] = assay: Toxicity in mouse CA-755 cells implanted mouse assessed as mouse mortality at 40 mg/kg, ip dosed daily for 5 days; type: organism-based; design: dose 40 mg/kg, route intraperitoneal; conditions: in vivo, 120 h
Mus musculus [15] = assay: Toxicity in mouse LLC cells implanted mouse assessed as mouse mortality at 40 mg/kg, ip dosed daily for 5 days; type: organism-based; design: dose 40 mg/kg, route intraperitoneal; conditions: in vivo, 120 h
HL-60(TB) = assay: Growth inhibition of human HL-60(TB) cells; type: functional
[16] = Growth inhibition of human EKVX cells; type: functional
HOP-62 = assay: Growth inhibition of human HOP62 cells; type: functional
NCI-H322M = assay: Growth inhibition of human NCI-H322M cells; type: functional
NCI-H460 = assay: Growth inhibition of human NCI-H460 cells; type: functional
[17] = Growth inhibition of human HCT15 cells; type: functional
SF-268 = assay: Growth inhibition of human SF268 cells; type: functional
[18] = Growth inhibition of human SF295 cells; type: functional
SNB-19 = assay: Growth inhibition of human SNB19 cells; type: functional
SNB-75 = assay: Growth inhibition of human SNB75 cells; type: functional
Malme-3M = assay: Growth inhibition of human MALME-3M cells; type: functional
M14 = assay: Growth inhibition of human M14 cells; type: functional
SK-MEL-5 = assay: Growth inhibition of human SK-MEL-5 cells; type: functional
[19] = Growth inhibition of human UACC257 cells; type: functional
[20] = Growth inhibition of human UACC62 cells; type: functional
[21] = Growth inhibition of human OVCAR3 cells; type: functional
[22] = Growth inhibition of human OVCAR5 cells; type: functional
[23] = Growth inhibition of human OVCAR8 cells; type: functional, OVCAR-8
786-0 = assay: Growth inhibition of human 786-0 cells; type: functional
SN12C = assay: Growth inhibition of human SN12C cells; type: functional
[24] = Growth inhibition of human UO31 cells; type: functional
DU-145 = assay: Growth inhibition of human DU145 cells; type: functional
[25] = Growth inhibition of human PC3 cells; type: functional
[26] = Growth inhibition of human Hs 578T cells; type: functional
T47D = assay: Growth inhibition of human T47D cells; type: functional
[27] = read-out: pLC50 (the source's name) (converted)

COC(=O)[C@]1(C)CCC[C@]2(C)[C@H]3C[C@H]4C(C(C)C)=C[C@]3(CC[C@H]21)[C@@H]1/C(=N/O)CC/C(=N\O)[C@@H]14
ILS at 20 mg/kg (P388): -4%
Activity (Mus musculus [1]): 0.57 mL
Activity (Mus musculus [2]): 1.3 mL
Activity (Mus musculus [3]): 144 mg
Activity (Mus musculus [4]): 104 mg
Activity (Mus musculus [5]): Non-toxic
inhibition in vivo at 40 mg/kg [6]: 83%
inhibition in vivo at 40 mg/kg [7]: 47%
inhibition in vivo at 40 mg/kg [8]: 41%
inhibition in vivo at 40 mg/kg [9]: 32%
ILS at 40 mg/kg [10]: 11%
ILS at 40 mg/kg [11]: 18%
inhibition in vivo at 40 mg/kg [12]: 44%
inhibition in vivo at 40 mg/kg [13]: 37%
Activity (Mus musculus [14]): Non-toxic
Activity (Mus musculus [15]): Non-toxic
GI50 (HL-60(TB)): 1.95 µM
CC50 (HL-60(TB); [27]): 36.3 µM
TGI (HL-60(TB); read-out: pTGI (converted)): 4.57 µM
GI50 [16]: 3.72 µM
CC50 [16, 27]: 79.4 µM
TGI ([16]; read-out: pTGI (converted)): 18.2 µM
GI50 (HOP-62): 15.1 µM
CC50 (HOP-62; [27]): 95.5 µM
TGI (HOP-62; read-out: pTGI (converted)): 38 µM
GI50 (NCI-H322M): 2.69 µM
CC50 (NCI-H322M; [27]): 20.9 µM
TGI (NCI-H322M; read-out: pTGI (converted)): 6.17 µM
GI50 (NCI-H460): 2.29 µM
CC50 (NCI-H460; [27]): 46.8 µM
TGI (NCI-H460; read-out: pTGI): 5.25 µM
GI50 ([17]; HCT-15): 3.39 µM
CC50 ([17]; HCT-15, read-out: pLC50 (the source's name) (converted)): 39.8 µM
TGI ([17]; HCT-15, read-out: pTGI (converted)): 12.9 µM
GI50 (SF-268): 4.37 µM
CC50 (SF-268; [27]): 55 µM
TGI (SF-268; read-out: pTGI (converted)): 17 µM
GI50 ([18]; SF-295): 5.89 µM
CC50 ([18]; SF-295, read-out: pLC50 (the source's name) (converted)): 64.6 µM
TGI ([18]; SF-295, read-out: pTGI (converted)): 21.4 µM
GI50 (SNB-19): 11.5 µM
CC50 (SNB-19; [27]): 55 µM
TGI (SNB-19; read-out: pTGI (converted)): 25.1 µM
GI50 (SNB-75): 4.9 µM
CC50 (SNB-75; [27]): 63.1 µM
TGI (SNB-75; read-out: pTGI (converted)): 20.4 µM
GI50 (Malme-3M): 5.89 µM
CC50 (Malme-3M; [27]): 50.1 µM
TGI (Malme-3M; read-out: pTGI (converted)): 20 µM
GI50 (M14): 5.25 µM
CC50 (M14; [27]): 55 µM
TGI (M14; read-out: pTGI (converted)): 18.6 µM
GI50 (SK-MEL-5): 3.09 µM
CC50 (SK-MEL-5; [27]): 36.3 µM
TGI (SK-MEL-5; read-out: pTGI (converted)): 11.5 µM
GI50 ([19]; UACC-257): 3.63 µM
CC50 ([19]; UACC-257, read-out: pLC50 (the source's name) (converted)): 38.9 µM
TGI ([19]; UACC-257, read-out: pTGI (converted)): 12 µM
GI50 ([20]; UACC-62): 4.68 µM
CC50 ([20]; UACC-62, read-out: pLC50 (the source's name) (converted)): 67.6 µM
TGI ([20]; UACC-62, read-out: pTGI (converted)): 22.4 µM
GI50 ([21]; OVCAR-3): 2.4 µM
CC50 ([21]; OVCAR-3, read-out: pLC50 (the source's name) (converted)): 15.8 µM
TGI ([21]; OVCAR-3, read-out: pTGI (converted)): 5.37 µM
GI50 ([22]; OVCAR-5): 5.62 µM
CC50 ([22]; OVCAR-5, read-out: pLC50 (the source's name) (converted)): 63.1 µM
TGI ([22]; OVCAR-5, read-out: pTGI (converted)): 20 µM
GI50 ([23]; OVCAR-8): 3.24 µM
CC50 ([23]; OVCAR-8, read-out: pLC50 (converted)): > 100 µM
TGI ([23]; OVCAR-8, read-out: pTGI (converted)): 12.6 µM
GI50 (786-0): 5.75 µM
CC50 (786-0; [27]): 53.7 µM
TGI (786-0; read-out: pTGI (converted)): 19.5 µM
GI50 (SN12C): 1.86 µM
CC50 (SN12C; [27]): 8.13 µM
TGI (SN12C; read-out: pTGI (converted)): 3.89 µM
GI50 ([24]; UO-31): 4.9 µM
CC50 ([24]; UO-31, read-out: pLC50 (the source's name) (converted)): 75.9 µM
TGI ([24]; UO-31, read-out: pTGI (converted)): 20.9 µM
GI50 (DU-145; DU-145): 3.02 µM
CC50 (DU-145; DU-145, read-out: pLC50 (converted)): > 100 µM
TGI (DU-145; DU-145, read-out: pTGI (converted)): 15.8 µM
GI50 ([25]; PC-3): 4.37 µM
CC50 ([25]; PC-3, read-out: pLC50 (the source's name) (converted)): 45.7 µM
TGI ([25]; PC-3, read-out: pTGI (converted)): 15.1 µM
GI50 [26]: 0.01 µM
CC50 [26, 27]: 11.2 µM
TGI ([26]; read-out: pTGI (converted)): 2.04 µM
GI50 (T47D): 1.91 µM
CC50 (T47D; [27]): 24.5 µM
TGI (T47D; read-out: pTGI (converted)): 4.68 µM
